Measurements: patent US5434186A, “Carboxylic acid leukotriene B4 antagonists” (Hoffmann-La Roche Inc., priority 1993, dated 1995)

Key:
[1] = system: LTB4 -induced bronchoconstriction; assay: Guinea Pig Bronchoconstriction In Vivo (LTB4-induced); parameters: species or system guinea pig (Hartley strain); settings: Cavia porcellus, iv, i.v. five minutes prior to LTB4 (1 μg/kg i.v.), read-out: ID50 (mg/kg), i.v., LTB4-induced bronchoconstriction
Procedure: Male guinea pigs (Hartley strain) weighing 300 to 500 g are anesthetized with urethane (2 g/kg) intraperitoneally and a polyethylene cannula is inserted into the jugular vein for drug administration. Tracheal pressure is recorded from a cannula inserted into the trachea and connected to a Gould P23ID pressure transducer. After surgical preparation of the animals, a period of time is allowed for pulmonary functions to stabilize. The test compound is administered intravenously five minutes prior to leukotriene B4 administration according to the following protocol: Animals are paralyzed with succinylcholine (1.2 mg/kg i.v.) and mechanically respirated (Harvard rodent respirator) at 40 breaths/minute and 2.5 cc tidal volume. Propranolol (0.1 mg/kg) is then administered intravenously one minute prior to leukotriene B4 administration. Animals are then challenged with an intermediate constrictory dose of leukotriene B4 (1 μg/kg) delivered intravenously.
The change (cm H2 O) between pre and peak ventilatory pressure readings is averaged for five control and five drug treated animals. The percent inhibition is calculated from the formula:
((Control-Drug Treated)/Control)×100
When representative compounds of formula I of the invention were utilized as the test compounds the following results were obtained: […]

LTB4 Receptor = target: T1, LTB4 Receptor (Homo sapiens, UniProt Q15722); assay: LTB4 Receptor Binding Assay (inhibition of 3H-LTB4 binding, human neutrophils); settings: 0.5 nM 3H-LTB4, 45 minutes on ice, isolated human neutrophils
T1 construct: Isolated human neutrophils in Gey's salt solution; endogenous in cells; host or cells: human neutrophils isolated from blood (90-95% neutrophils)
T1 sequence (Q15722 whole entry): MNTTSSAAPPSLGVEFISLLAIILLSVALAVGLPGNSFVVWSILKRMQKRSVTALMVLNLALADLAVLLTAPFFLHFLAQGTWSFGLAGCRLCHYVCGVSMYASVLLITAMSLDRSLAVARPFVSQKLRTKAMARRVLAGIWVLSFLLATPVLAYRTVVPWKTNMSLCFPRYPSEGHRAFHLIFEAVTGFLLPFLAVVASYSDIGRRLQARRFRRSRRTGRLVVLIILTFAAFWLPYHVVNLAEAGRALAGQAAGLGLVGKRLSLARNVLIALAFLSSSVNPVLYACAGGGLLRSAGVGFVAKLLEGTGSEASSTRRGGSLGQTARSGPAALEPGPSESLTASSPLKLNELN
Procedure: Binding assays can be performed in microtiter wells. Isolated human neutrophils in Gey's salt solution are incubated on ice for 45 minutes with 0.5 nM ^3 H-LTB4 in the presence or absence of test compounds. Assays are terminated by adding 12 ml ice cold 50 mM Tris (pH 7.4) followed by rapid filtration under vacuum through GF/C filters. Radioactivity is determined by scintillation counting. Non specific binding is defined as the binding not displaced by 100 fold excess of unlabelled LTB4. Specific binding is defined as the difference between total binding and non-specific binding. Non linear analysis of the binding data is performed using LIGAND (Munson and Rodbard, 1980). Ki (Inhibition Constant) values were determined using the Cheng-Prusoff relationship (Cheng and Prusoff, 1973).
Human neutrophils are prepared from citrated or heparinized blood. The blood was diluted 1:1 with Hank's balanced salt solution (HBSS) minus calcium and magnesium and underlayed with 10 ml lymphocyte separation medium (Organon Teknika), followed by centrifugation at 500× g for 30 min., at room temperature. Supernatants are removed down to the red blood cell pellet. HBSS minus calcium and magnesium are added to give 25 ml. To this are added 25 ml 6% dextran in 0.85% NaCl. Samples are mixed and allowed to stand 20 min at room temperature. Supernatants are removed and centrifuged at 500× g for 5 min at 4° C. Pellets are resuspended with 20 ml 0.2% saline for 20 sec followed by the addition of 20 ml 1.6% saline. Samples are centrifuged at 500× g for 5 min at 4° C. The lysis is repeated and the cells (90-95% neutrophils) are resuspended at 2× 10^6 cell/ml in GEY's salt solution.

Work on `CCCc1c(OCCCCCCc2cccc(OCCCCCCCC(=O)O)c2CCC(=O)O)ccc2c1OCCC2=O` [Example 184, 2-[(7-Carboxyheptyl)oxy]-6-[6-[(3,4-dihydro-4-oxo-8-propyl-2H-1-benzopyran-7-yl)oxy]hexyl]benzenepropanoic Acid] yielded an ED50 [1] of 0.17 mg/kg.

In the case of `CCCc1c(CCCCCCOc2ccccc2CCC(=O)O)ccc2c1OCCC2=O` [Example 106, 2-[6-(3,4-Dihydro-4-oxo-8-propyl-2H-1-benzopyran-7-yl)hexyloxy]benzenepropanoic Acid], the Ki (LTB4 Receptor) is reported as 20 nM.

In the case of `CCCc1c(OCCCCCOc2ccc(OCCCC(=O)O)cc2CCC(=O)O)ccc2c1OCCC2=O` [Example 47, 5-(3-Carboxypropoxy)-2-[5-[(3,4-dihydro-4-oxo-8-propyl-2H-1-benzopyran-7-yl)oxy]pentyloxy]benzenepropanoic Acid], the Ki (LTB4 Receptor) is reported as 3 nM and the ED50 [1] is reported as 3.66 mg/kg.

Work on `CCCc1c(OCc2cccc(COc3ccccc3CCC(=O)O)c2)ccc2c1OCCC2=O` [Example 39, 2-[3-[[(3,4-Dihydro-4-oxo-8-propyl-2H-1-benzopyran-7-yl)oxy]methyl]phenylmethoxy]benzenepropanoic Acid] yielded a Ki (LTB4 Receptor) of 100 nM and an ED50 [1] of 5.4 mg/kg.

Work on `CCCc1c(OCCCC/C=C/c2ccc(C(=O)c3cccc(C(=O)O)c3)cc2CCC(=O)O)ccc2c1OCCC2=O` [Example 101, (E)-5-[(3-Carboxyphenyl)carbonyl]-2-[6-[(3,4-dihydro-4-oxo-8-propyl-2H-1-benzopyran-7-yl)oxy]-1-hexenyl]benzenepropanoic Acid] yielded a Ki (LTB4 Receptor) of 4 nM.

Compound `CCCc1c(OCCCCCOc2ccccc2OCC(=O)O)ccc2c1OCCC2=O` [Example 13, [2-[5-[(3,4-Dihydro-4-oxo-8-propyl-2H-1-benzopyran-7-yl)oxy]pentyloxy]phenoxy]acetic Acid] has a Ki (LTB4 Receptor) of 70 nM and an ED50 [1] of 1.85 mg/kg.

Work on `CCCc1c(OCCCCCOc2ccc(C(=O)Cc3ccccc3C(=O)O)cc2CCC(=O)O)ccc2c1OCCC2=O` [Example 92, 5-[2-(2-Carboxyphenyl)-1-oxoethyl]-2-[5-[(3,4-dihydro-4-oxo-8-propyl-2H-1-benzopyran-7-yl)oxy]pentyloxy]benzenepropanoic Acid] yielded a Ki (LTB4 Receptor) of 5 nM.

Compound `CCCc1c(OCCCCCOc2cccc(CCC(=O)O)c2)ccc2c1OCCC2=O` [Example 68, 3-[5-[(3,4-Dihydro-4-oxo-8-propyl-2H-1-benzopyran-7-yl)oxy]pentyloxy]benzenepropanoic Acid] has a Ki (LTB4 Receptor) of 60 nM and an ED50 [1] of 3.56 mg/kg.

Work on `CCCc1c(OCCCCCCc2ccc(OCCCC(=O)O)cc2/C=C/C(=O)O)ccc2c1OCCC2=O` [Example 114, (E)-4-[3-(2-carboxyethenyl)-4-[6-[(3,4-dihydro-4-oxo-8-propyl-2H-1-benzopyran-7-yl)oxy]hexyl]phenoxy]butanoic acid] yielded a Ki (LTB4 Receptor) of 1 nM.

Work on `CCCc1c(OCCCCCOc2ccc(OCCCCC(=O)O)cc2CCC(=O)O)ccc2c1OCCC2=O` [Example 58, 5-(4-Carboxybutoxy)-2-[5-[(3,4-dihydro-4-oxo-8-propyl-2H-1-benzopyran-7-yl)oxy]pentyloxy]benzenepropanoic Acid Hemihydrate] yielded a Ki (LTB4 Receptor) of 4 nM and an ED50 [1] of 5.09 mg/kg.

`CCCc1c(OCCCCCOc2ccc(C(=O)c3ccccc3CC(=O)O)cc2CCC(=O)O)ccc2c1OCCC2=O` [Example 95, 5-[[2-(Carboxymethyl)phenyl]carbonyl]-2-[5-[(3,4-dihydro-4-oxo-8-propyl-2H-1-benzopyran-7-yl)oxy]pentyloxy]benzenepropanoic Acid] gave a Ki (LTB4 Receptor) of 8 nM.

Work on `CCCc1c(OCCCCCOc2ccc(C(C)=O)cc2CCC(=O)O)ccc2c1OCCC2=O` [Example 33, 5-Acetyl-2-[5-[(3,4-dihydro-4-oxo-8-propyl-2H-1-benzopyran-7-yl)oxy]pentyloxy]benzenepropanoic Acid] yielded a Ki (LTB4 Receptor) of 10 nM and an ED50 [1] of 1.8 mg/kg.

`CCCc1c(OCCCCCCc2cccc(OCCCCCC(=O)O)c2CCC(=O)O)ccc2c1CCCC2=O` [Example 206, 2-[(5-Carboxypentyl)oxy]-6-[6-[(5,6,7,8-tetrahydro-5-oxo-1-propyl-2-naphthalenyl)oxy]hexyl]benzenepropanoic Acid] was tested, and the ED50 [1] was 0.12 mg/kg.

`CCCc1c(OCCCCCCc2cccc(OCCCCCCCCC(=O)O)c2CCC(=O)O)ccc2c1OCCC2=O` [Example 188, 2-[(8-Carboxyoctyl)oxy]-6-[6-[(3,4-dihydro-4-oxo-8-propyl-2H-1-benzopyran-7-yl)oxy]hexyl]benzenepropanoic Acid] gave an ED50 [1] of 0.9 mg/kg.

`CCCc1c(OCCCCCCc2cccc(OCCCC(=O)O)c2CCC(=O)O)ccc2c1OCCC2=O` [Example 205, 2-(3-Carboxypropoxy)-6-[6-[(3,4-dihydro-4-oxo-8-propyl-2H-1-benzopyran-7-yl)oxy]hexyl]benzenepropanoic Acid] gave an ED50 [1] of 0.26 mg/kg.

Work on `CCCc1c(OCCCCCOc2ccccc2CCC(=O)O)ccc2c1OCC2=O` [Example 40, 2-[5-[(2,3-Dihydro-3-oxo-7-propylbenzofuran-6-yl)oxy]pentyloxy]benzenepropanoic Acid] yielded a Ki (LTB4 Receptor) of 75 nM.

`CCCc1c(C#CCCCCOc2ccccc2CCC(=O)O)ccc2c1OCCC2=O` [Example 107, 2-[6-(3,4-Dihydro-4-oxo-8-propyl-2H-1-benzopyran-7-yl)-5-hexynyloxy]benzenepropanoic Acid] was tested, and the Ki (LTB4 Receptor) was 50 nM.

`CCCc1c(OCCCCCCCOc2ccc(C(=O)c3cccc(C(=O)O)c3)cc2CCC(=O)O)ccc2c1OCCC2=O` [Example 81, 5-[(3-Carboxyphenyl)carbonyl]-2-[7-[(3,4-dihydro-4-oxo-8-propyl-2H-1-benzopyran-7-yl)oxy]heptyloxy]benzenepropanoic Acid] gave a Ki (LTB4 Receptor) of 3 nM.

`CCCc1c(OCCCCCCCCOc2ccc(C(=O)c3cccc(C(=O)O)c3)cc2CCC(=O)O)ccc2c1OCCC2=O` [Example 83, 5-[(3-Carboxyphenyl)carbonyl]-2-[8-[(3,4-dihydro-4-oxo-8-propyl-2H-1-benzopyran-7-yl)oxy]octyloxy]benzenepropanoic Acid] gave a Ki (LTB4 Receptor) of 3 nM.

Compound `CCCc1c(OCCCCCOc2ccccc2/C=C/C(=O)O)ccc2c1OCCC2=O` [Example 109, (E)-3-[2-[5-[(3,4-Dihydro-4-oxo-8-propyl-2H-1-benzopyran-7-yl)oxy]pentyloxy]phenyl]-2-propenoic Acid] has a Ki (LTB4 Receptor) of 80 nM.

Work on `CCCc1c(OCCCCCc2ccccc2CCC(=O)O)ccc2c1OCCC2=O` [Example 8, 2-[5-[(3,4-Dihydro-4-oxo-8-propyl-2H-1-benzopyran-7-yl)oxy]pentyl]benzenepropanoic Acid] yielded a Ki (LTB4 Receptor) of 63 nM.

`CCCc1c(OCCCCCOc2cccc3cc(C(=O)O)oc23)ccc2c1OCCC2=O` [Example 19, 7-[5-[(3,4-Dihydro-4-oxo-8-propyl-2H-1-benzopyran-7-yl)oxy]pentyloxy]-2-benzofurancarboxylic Acid] showed a Ki (LTB4 Receptor) of 250 nM.

In the case of `CCCc1c(OCCCCCOc2ccccc2CCC(=O)O)ccc2c1CCCC2=O` [Example 10, 2-[[5-(5-Oxo-1-propyl-5,6,7,8-tetrahydro-2-naphthalenyl)oxy]pentyloxy]benzenepropanoic Acid], the ED50 [1] is reported as 2.08 mg/kg.

For `CCCc1ccc2c(c1OCCCCCOc1ccccc1CCC(=O)O)CCCC2=O` [Example 79, 2-[5-[(5-Oxo-2-propyl-5,6,7,8-tetrahydro-1-naphthalenyl)oxy]pentyloxy]benzenepropanoic Acid], the Ki (LTB4 Receptor) was 1500 nM.

`CCCc1c(OCCCCCOc2ccc3oc(C(=O)O)cc3c2)ccc2c1OCCC2=O` [Example 26, 5-[5-[(3,4-Dihydro-4-oxo-8-propyl-2H-1-benzopyran-7-yl)oxy]pentyloxy]-2-benzofurancarboxylic Acid] showed a Ki (LTB4 Receptor) of 270 nM.
